Source: ChEMBL document CHEMBL1201862, “PubChem BioAssay data set” (2004)
Where “and” joins values, the source holds several entries; their conditions need not be identical. Identical values can stand only once.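 Dose response: 5 concentrations. Exposure: 48 h. Format: 96-well plates. Endpoint: linear interpolation; highest concentration if not reached. The concentration for 50% growth inhibition is given as GI50.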 Calls of active or inactive are those of the source. No stated cut-off is given here; in the data, active = GI50 up to about 1.1 µM and inactive = higher.

Assays:
Assay in all cases: NCI tumour cell line growth inhibition, 48 h
[1] = test system: HCT-116
[2] = test system: NCI-H23
[3] = test system: HOP-62
[4] = test system: UACC-257
[5] = test system: MOLT-4
[6] = test system: SK-MEL-2
[7] = test system: A498
[8] = test system: MDA-MB-435
[9] = test system: SK-MEL-5
[10] = test system: 786-0
[11] = test system: BT-549
[12] = test system: PC-3
[13] = test system: MDA-N
[14] = test system: KM12
[15] = test system: M14
[16] = test system: UACC-62
[17] = test system: RPMI-8226
[18] = test system: HL-60
[19] = test system: K562

CC(=O)OCC1OC(n2c(N)c(C#N)c(C)c(C#N)c2=S)C(OC(C)=O)C(OC(C)=O)C1OC(C)=O (stereo not given)
GI50 [1]: > 100 µM (inactive)
GI50 [2]: > 100 µM (inactive)
GI50 [3]: > 100 µM (inactive)
GI50 [4]: > 100 µM (inactive)
GI50 [5]: > 100 µM (inactive)
GI50 [6]: > 100 µM (inactive)
GI50 [7]: > 100 µM (inactive)
GI50 [8]: > 100 µM (inactive)
GI50 [9]: > 100 µM (inactive)
GI50 [10]: > 100 µM (inactive)
GI50 [11]: > 100 µM (inactive)
GI50 [12]: > 100 µM (inactive)
GI50 [13]: > 100 µM (inactive)
GI50 [14]: > 100 µM (inactive)
GI50 [15]: 46.3 µM (inactive) and 80.9 µM (inactive)
GI50 [16]: > 100 µM (inactive)
GI50 [17]: > 100 µM (inactive)

Cc1ccc2sc3ccc(N)cc3c(=O)c2c1
GI50 [1]: 33.8 µM (inactive)
GI50 [2]: 81.8 µM (inactive)
GI50 [3]: 32.8 µM (inactive)
GI50 [4]: > 100 µM (inactive)
GI50 [5]: 11.4 µM (inactive)
GI50 [6]: 53.6 µM (inactive)
GI50 [7]: 22.4 µM (inactive)
GI50 [8]: 36.9 µM (inactive)
GI50 [9]: 51.9 µM (inactive)
GI50 [10]: 54.5 µM (inactive)
GI50 [11]: 51.9 µM (inactive)
GI50 [12]: 55.1 µM (inactive)
GI50 [13]: 26.8 µM (inactive)
GI50 [14]: 20.7 µM (inactive)
GI50 [18]: 33.7 µM (inactive)
GI50 [15]: 90.2 µM (inactive)
GI50 [19]: 37.6 µM (inactive)
GI50 [16]: 51.9 µM (inactive)

CNc1nc(N)nc(Nc2ccc(I)cc2)c1N=O
GI50 [1]: > 100 µM (inactive)
GI50 [2]: > 100 µM (inactive)
GI50 [3]: > 100 µM (inactive)
GI50 [4]: 85.3 µM (inactive)
GI50 [5]: 78.5 µM (inactive)
GI50 [6]: > 100 µM (inactive)
GI50 [8]: > 100 µM (inactive)
GI50 [9]: 96.2 µM (inactive)
GI50 [10]: > 100 µM (inactive)
GI50 [11]: > 100 µM (inactive)
GI50 [12]: > 100 µM (inactive)
GI50 [13]: > 100 µM (inactive)
GI50 [14]: > 100 µM (inactive)
GI50 [18]: 62.4 µM (inactive)
GI50 [19]: 68.2 µM (inactive)
GI50 [16]: 48 µM (inactive)
GI50 [17]: > 100 µM (inactive)

O=C1OCN(c2ccccc2)C12CCN(Cc1ccccc1)CC2
GI50 [1]: 31.7 µM (inactive)
GI50 [2]: 53.5 µM (inactive)
GI50 [3]: 49.3 µM (inactive)
GI50 [4]: 16.7 µM (inactive)
GI50 [5]: 13.6 µM (inactive)
GI50 [6]: 25.8 µM (inactive)
GI50 [8]: 17.1 µM (inactive)
GI50 [9]: 19.5 µM (inactive)
GI50 [10]: 26.8 µM (inactive)
GI50 [11]: 67.1 µM (inactive)
GI50 [12]: 24.7 µM (inactive)
GI50 [13]: 23.6 µM (inactive)
GI50 [14]: 23.7 µM (inactive)
GI50 [18]: 27.8 µM (inactive)
GI50 [15]: 18.2 µM (inactive)
GI50 [19]: 5.35 µM (inactive)
GI50 [16]: 18.6 µM (inactive)
GI50 [17]: 23.7 µM (inactive)

Cc1cccc(C)c1NC(=O)C(=O)C(c1ccccc1Cl)S(=O)(=O)Cc1ccccc1Cl (stereo not given)
GI50 [1]: > 82.2 µM (inactive)
GI50 [2]: 34.5 µM (inactive)
GI50 [3]: 18 µM (inactive)
GI50 [4]: > 100 µM (inactive)
GI50 [5]: > 100 µM (inactive)
GI50 [6]: > 83.8 µM (inactive)
GI50 [8]: > 100 µM (inactive)
GI50 [9]: > 100 µM (inactive)
GI50 [10]: 27.7 µM (inactive)
GI50 [11]: 35.7 µM (inactive)
GI50 [12]: > 100 µM (inactive)
GI50 [13]: > 100 µM (inactive)
GI50 [14]: > 100 µM (inactive)
GI50 [18]: 0.236 µM (active)
GI50 [15]: > 100 µM (inactive)
GI50 [19]: > 100 µM (inactive)
GI50 [16]: 31.7 µM (inactive)
GI50 [17]: > 100 µM (inactive)

COc1ccc(-c2nnc3n(C)c4ccccc4n3c2=O)cc1
GI50 [1]: 48.6 µM (inactive)
GI50 [2]: 40.1 µM (inactive)
GI50 [3]: 14.5 µM (inactive)
GI50 [4]: > 100 µM (inactive)
GI50 [5]: > 100 µM (inactive)
GI50 [6]: > 100 µM (inactive)
GI50 [7]: > 100 µM (inactive)
GI50 [8]: > 100 µM (inactive)
GI50 [9]: > 100 µM (inactive)
GI50 [10]: 37.2 µM (inactive)
GI50 [11]: 72.4 µM (inactive)
GI50 [12]: > 100 µM (inactive)
GI50 [13]: > 100 µM (inactive)
GI50 [14]: > 100 µM (inactive)
GI50 [18]: > 100 µM (inactive)
GI50 [15]: > 100 µM (inactive)

S=C(Nc1c2c(nc3ccccc13)CCCC2)Nc1c2c(nc3ccccc13)CCCC2
GI50 [1]: > 100 µM (inactive)
GI50 [2]: > 100 µM (inactive)
GI50 [3]: > 100 µM (inactive)
GI50 [4]: > 100 µM (inactive)
GI50 [5]: > 100 µM (inactive)
GI50 [6]: > 100 µM (inactive)
GI50 [7]: > 100 µM (inactive)
GI50 [8]: > 100 µM (inactive)
GI50 [9]: > 100 µM (inactive)
GI50 [10]: > 100 µM (inactive)
GI50 [11]: > 100 µM (inactive)
GI50 [12]: > 100 µM (inactive)
GI50 [13]: > 100 µM (inactive)
GI50 [14]: > 100 µM (inactive)
GI50 [15]: > 100 µM (inactive)
GI50 [19]: > 100 µM (inactive)
GI50 [16]: > 100 µM (inactive)
GI50 [17]: > 100 µM (inactive)

CCOC(=O)c1cc2ncccc2c2ccccc12
GI50 [1]: > 100 µM (inactive)
GI50 [2]: > 100 µM (inactive)
GI50 [3]: > 100 µM (inactive)
GI50 [4]: > 100 µM (inactive)
GI50 [5]: > 100 µM (inactive)
GI50 [6]: > 100 µM (inactive)
GI50 [8]: > 100 µM (inactive)
GI50 [9]: > 100 µM (inactive)
GI50 [10]: > 100 µM (inactive)
GI50 [11]: > 100 µM (inactive)
GI50 [12]: > 100 µM (inactive)
GI50 [13]: > 100 µM (inactive)
GI50 [14]: > 100 µM (inactive)
GI50 [18]: > 100 µM (inactive)
GI50 [15]: > 100 µM (inactive)
GI50 [19]: > 100 µM (inactive)
GI50 [16]: > 100 µM (inactive)
GI50 [17]: > 100 µM (inactive)
